Data taken from patent US20240368169A1 (priority 2021, published 2024).

Experiments:
[1] = target: recombinant poly(ADP-ribose) polymerase 2 (PARP2) (Homo sapiens, UniProt Q9UGN5); experiment: biochemical; conditions: inhibition of PARP2 enzyme activity, chemiluminescence
[2] = system: MDA-MB-436 cells; experiment: Growth inhibition assay against BRCA mutant human breast cancer MDA-MB-436 cell line (CCK-8, 7 days); type: cell-based
[3] = target: recombinant poly(ADP-ribose) polymerase 1 (PARP1) (Homo sapiens, UniProt P09874); experiment: biochemical; conditions: inhibition of PARP1 enzyme activity, chemiluminescence
recombinant poly(ADP-ribose) polymerase 1 (PARP1), sequence (P09874 whole entry): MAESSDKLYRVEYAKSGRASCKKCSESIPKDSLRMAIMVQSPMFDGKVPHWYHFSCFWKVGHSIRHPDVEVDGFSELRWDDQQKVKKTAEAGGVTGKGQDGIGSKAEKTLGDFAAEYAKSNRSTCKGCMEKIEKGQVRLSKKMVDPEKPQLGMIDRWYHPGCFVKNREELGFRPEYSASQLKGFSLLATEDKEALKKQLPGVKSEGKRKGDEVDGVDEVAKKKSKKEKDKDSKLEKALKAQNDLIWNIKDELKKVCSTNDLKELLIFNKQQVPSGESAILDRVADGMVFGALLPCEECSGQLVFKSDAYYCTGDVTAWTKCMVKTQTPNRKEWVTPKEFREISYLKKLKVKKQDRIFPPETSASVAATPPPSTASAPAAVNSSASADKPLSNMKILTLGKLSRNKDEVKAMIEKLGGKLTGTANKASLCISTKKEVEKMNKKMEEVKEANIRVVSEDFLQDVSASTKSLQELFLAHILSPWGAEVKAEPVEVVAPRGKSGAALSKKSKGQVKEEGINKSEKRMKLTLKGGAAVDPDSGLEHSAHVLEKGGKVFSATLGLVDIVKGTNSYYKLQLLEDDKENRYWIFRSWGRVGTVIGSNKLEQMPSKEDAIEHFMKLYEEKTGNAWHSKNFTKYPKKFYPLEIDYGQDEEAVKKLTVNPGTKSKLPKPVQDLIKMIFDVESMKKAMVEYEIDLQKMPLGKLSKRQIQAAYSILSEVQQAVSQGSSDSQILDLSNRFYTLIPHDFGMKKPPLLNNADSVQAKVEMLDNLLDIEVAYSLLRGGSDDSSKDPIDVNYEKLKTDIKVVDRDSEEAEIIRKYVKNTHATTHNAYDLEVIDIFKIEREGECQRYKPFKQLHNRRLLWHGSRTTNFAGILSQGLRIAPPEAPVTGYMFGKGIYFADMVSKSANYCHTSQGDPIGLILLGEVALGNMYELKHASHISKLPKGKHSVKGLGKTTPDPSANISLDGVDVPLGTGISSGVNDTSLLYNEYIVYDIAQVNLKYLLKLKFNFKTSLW

recombinant poly(ADP-ribose) polymerase 2 (PARP2), sequence (Q9UGN5 whole entry): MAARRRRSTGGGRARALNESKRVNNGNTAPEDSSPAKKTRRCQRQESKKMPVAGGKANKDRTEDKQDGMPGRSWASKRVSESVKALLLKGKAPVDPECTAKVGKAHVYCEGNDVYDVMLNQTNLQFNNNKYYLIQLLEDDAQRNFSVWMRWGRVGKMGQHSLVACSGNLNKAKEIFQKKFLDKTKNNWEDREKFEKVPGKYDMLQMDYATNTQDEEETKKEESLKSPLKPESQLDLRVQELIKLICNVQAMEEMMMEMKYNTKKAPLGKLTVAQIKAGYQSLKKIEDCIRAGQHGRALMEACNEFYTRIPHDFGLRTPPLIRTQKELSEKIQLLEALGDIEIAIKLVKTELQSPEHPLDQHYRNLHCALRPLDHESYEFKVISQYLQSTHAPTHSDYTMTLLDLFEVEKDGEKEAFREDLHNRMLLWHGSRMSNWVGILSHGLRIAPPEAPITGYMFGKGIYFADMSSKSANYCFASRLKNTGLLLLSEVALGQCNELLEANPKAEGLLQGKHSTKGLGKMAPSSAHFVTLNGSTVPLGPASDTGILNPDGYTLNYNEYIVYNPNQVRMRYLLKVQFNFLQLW

Row | Compound | IC50 [1] | IC50 [2] | IC50 [3]
1 | CNC(=O)c1ccc(N2CCN(Cc3ccc4c5c(c(=O)[nH]c4c3)COC5)CC2)c(Cl)n1 [Example 3, 7-((4-(2-chloro-6-(methylcarbamoyl)pyridin-3-yl)piperazin-1-yl)methyl)-3,5-dihydrofuro[3,4-c]quinolin-4(1H)-one] | 467 nM | 5.01 nM | 1.33 nM
2 | CNC(=O)c1ccc(N2CCN(Cc3ccc4c5c(c(=O)[nH]c4c3)COC5)CC2)c(C)n1 [Example 4, 7-((4-(2-methyl-6-(methylcarbamoyl)pyridin-3-yl)piperazin-1-yl)methyl)-3,5-dihydrofuro[3,4-c]quinolin-4(1H)-one] | 188 nM | 4.22 nM | 1.59 nM
3 | CNC(=O)c1ccc(N2CCN(Cc3ccc4c(c3)[nH]c(=O)c3cccn34)CC2)c(C)n1 [Example 24, 7-((4-(2-methyl-6-(methylcarbamoyl)pyridin-3-yl)piperazin-1-yl)methyl)pyrrolo[1,2-a]quinoxalin-4(5H)-one] | 31.5 nM | 0.78 nM | 0.83 nM
4 | CNC(=O)c1ccc(N2CCN(Cc3ccc4c(c3)[nH]c(=O)c3ccnn34)CC2)c(C)n1 [Example 28, 7-((4-(2-methyl-6-(methylcarbamoyl)pyridin-3-yl)piperazin-1-yl)methyl)pyrazolo[1,5-a]quinoxalin-4(5H)-one] | > 3000 nM | 0.98 nM | 0.77 nM
5 | CNC(=O)c1ccc(N2CCN(Cc3ccc4c(c3)[nH]c(=O)c3cccn34)CC2)c(Cl)n1 [Example 35, 7-((4-(2-chloro-6-(methylcarbamoyl)pyridin-3-yl)piperazin-1-yl)methyl)pyrrolo[1,2-a]quinoxalin-4(5H)-one] | 26.3 nM | 0.39 nM | 0.81 nM
6 | CNC(=O)c1ccc(N2CCN(Cc3ccc4c(c3)[nH]c(=O)c3ccnn34)CC2)c(F)n1 [Example 36, 7-((4-(2-fluoro-6-(methylcarbamoyl)pyridin-3-yl)piperazin-1-yl)methyl)pyrazolo[1,5-a]quinoxalin-4(5H)-one] | 41.4 nM | 1.11 nM | 0.44 nM
7 | CNC(=O)c1ccc(N2CCN(Cc3ccc4c(c3)[nH]c(=O)c3ccnn34)CC2)c(Cl)n1 [Example 37, 7-((4-(2-chloro-6-(methylcarbamoyl)pyridin-3-yl)piperazin-1-yl)methyl)pyrazolo[1,5-a]quinoxalin-4(5H)-one] | 46.5 nM | 1.07 nM | 0.47 nM
8 | CNC(=O)c1ccc(N2CCN(Cc3ccc4c(c3)[nH]c(=O)c3cncn34)CC2)c(F)n1 [Example 38, 7-((4-(2-fluoro-6-(methylcarbamoyl)pyridin-3-yl)piperazin-1-yl)methyl)imidazo[1,5-a]quinoxalin-4(5H)-one] | 59.9 nM | 4.06 nM | 0.3 nM
9 | CNC(=O)c1ccc(N2CCN(Cc3cc(F)c4c(c3)[nH]c(=O)c3cccn34)CC2)c(C)n1 [Example 40, 7-((4-(2-methyl-6-(methylcarbamoyl)pyridin-3-yl)piperazin-1-yl)methyl)-9-fluoropyrrolo[1,2-a]quinoxalin-4(5H)-one] | 38.7 nM | 1.15 nM | 1.54 nM
10 | CNC(=O)c1ccc(N2CCN(Cc3cc(F)c4c(c3)[nH]c(=O)c3ccnn34)CC2)c(F)n1 [Example 44, 7-((4-(2-fluoro-6-(methylcarbamoyl)pyridin-3-yl)piperazin-1-yl)methyl)-9-fluoropyrazolo[1,5-a]quinoxalin-4(5H)-one] | 318 nM | 2.17 nM | 1.76 nM
11 | CNC(=O)c1ccc(N2CCN(Cc3ccc4c(c3)[nH]c(=O)c3ccc(C)n34)CC2)c(C)n1 [Example 54, 7-((4-(2-methyl-6-(methylcarbamoyl)pyridin-3-yl)piperazin-1-yl)methyl)-1-methylpyrrolo[1,2-a]quinoxalin-4(5H)-one] | 12.7 nM | 1.85 nM | 1.32 nM
12 | CNC(=O)c1ccc(N2CCN(Cc3ccc4c(c3)[nH]c(=O)c3c(C)ccn34)CC2)c(C)n1 [Example 56, 7-((4-(2-methyl-6-(methylcarbamoyl)pyridin-3-yl)piperazin-1-yl)methyl)-3-methylpyrrolo[1,2-a]quinoxalin-4(5H)-one] | 37.9 nM | 0.65 nM | 2.32 nM
13 | CNC(=O)c1ccc(N2CCN(Cc3ccc4c(c3)[nH]c(=O)c3cc(C)nn34)CC2)c(C)n1 [Example 57, 7-((4-(2-methyl-6-(methylcarbamoyl)pyridin-3-yl)piperazin-1-yl)methyl)-2-methylpyrazolo[1,5-a]quinoxalin-4(5H)-one] | 67.9 nM | 1.43 nM | 1.77 nM
14 | Cc1nc(C(=O)NC2CC2)ccc1N1CCN(Cc2ccc3c(c2)[nH]c(=O)c2cccn23)CC1 [Example 59, 7-((4-(2-methyl-6-(cyclopropylcarbamoyl)pyridin-3-yl)piperazin-1-yl)methyl)pyrrolo[1,2-a]quinoxalin-4(5H)-one] | 21.9 nM | 0.99 nM | 1.39 nM
15 | Cc1nc(C(=O)NC2CC2)ccc1N1CCN(Cc2ccc3c(c2)[nH]c(=O)c2ccnn23)CC1 [Example 62, 7-((4-(2-methyl-6-(cyclopropylcarbamoyl)pyridin-3-yl)piperazin-1-yl)methyl)pyrazolo[1,5-a]quinoxalin-4(5H)-one] | 150 nM | 3.42 nM | 0.29 nM
16 | Cc1nc(C(=O)NC2CC2)ccc1N1CCN(Cc2cc(F)c3c(c2)[nH]c(=O)c2cccn23)CC1 [Example 66, 7-((4-(2-methyl-6-(cyclopropylcarbamoyl)pyridin-3-yl)piperazin-1-yl)methyl)-9-fluoropyrrolo[1,2-a]quinoxalin-4(5H)-one] | 66.1 nM | 1.66 nM | 1.63 nM
17 | O=C(NC1CC1)c1ccc(N2CCN(Cc3cc(F)c4c(c3)[nH]c(=O)c3cccn34)CC2)c(F)n1 [Example 67, 7-((4-(2-fluoro-6-(cyclopropylcarbamoyl)pyridin-3-yl)piperazin-1-yl)methyl)-9-fluoropyrrolo[1,2-a]quinoxalin-4(5H)-one] | 48.2 nM | 2.11 nM | 2.02 nM
18 | O=C(NC1CC1)c1ccc(N2CCN(Cc3cc(F)c4c(c3)[nH]c(=O)c3cccn34)CC2)c(Cl)n1 [Example 68, 7-((4-(2-chloro-6-(cyclopropylcarbamoyl)pyridin-3-yl)piperazin-1-yl)methyl)-9-fluoropyrrolo[1,2-a]quinoxalin-4(5H)-one] | 90.1 nM | 2.92 nM | 1.61 nM
19 | CNC(=O)c1ccc(N2CCN(Cc3ccc4c(c3)[nH]c(=O)c3cc(C)nn34)CC2)c(F)n1 [Example 69, 7-((4-(2-fluoro-6-(methylcarbamoyl)pyridin-3-yl)piperazin-1-yl)methyl)-2-methylpyrazolo[1,5-a]quinoxalin-4(5H)-one] | 49.9 nM | 1.08 nM | 2.32 nM
20 | CNC(=O)c1ccc(N2CCN(Cc3ccc4c(c3)[nH]c(=O)c3cc(C)nn34)CC2)c(Cl)n1 [Example 70, 7-((4-(2-chloro-6-(methylcarbamoyl)pyridin-3-yl)piperazin-1-yl)methyl)-2-methylpyrazolo[1,5-a]quinoxalin-4(5H)-one] | 103 nM | 1.41 nM | 1.37 nM
21 | CNC(=O)c1ccc(N2CCN(Cc3ccc4c(c3)[nH]c(=O)c3c(C)cnn34)CC2)c(F)n1 [Example 71, 7-((4-(2-fluoro-6-(methylcarbamoyl)pyridin-3-yl)piperazin-1-yl)methyl)-3-methylpyrazolo[1,5-a]quinoxalin-4(5H)-one] | 66.4 nM | 0.77 nM | 1.35 nM
22 | CNC(=O)c1ccc(N2CCN(Cc3ccc4c(c3)[nH]c(=O)c3c(C)cnn34)CC2)c(Cl)n1 [Example 72, 7-((4-(2-chloro-6-(methylcarbamoyl)pyridin-3-yl)piperazin-1-yl)methyl)-3-methylpyrazolo[1,5-a]quinoxalin-4(5H)-one] | 110 nM | 2.09 nM | 1.12 nM
23 | CNC(=O)c1ccc(N2CCN(Cc3cc(F)c4c(c3)[nH]c(=O)c3cc(C)nn34)CC2)c(F)n1 [Example 73, 7-((4-(2-fluoro-6-(methylcarbamoyl)pyridin-3-yl)piperazin-1-yl)methyl)-9-fluoro-2-methylpyrazolo[1,5-a]quinoxalin-4(5H)-one] | 78.1 nM | 1.77 nM | 1.96 nM
24 | CNC(=O)c1ccc(N2CCN(Cc3cc(F)c4c(c3)[nH]c(=O)c3cc(C)nn34)CC2)c(Cl)n1 [Example 74, 7-((4-(2-chloro-6-(methylcarbamoyl)pyridin-3-yl)piperazin-1-yl)methyl)-9-fluoro-2-methylpyrazolo[1,5-a]quinoxalin-4(5H)-one] | 186 nM | 1.58 nM | 1.52 nM
25 | CNC(=O)c1ccc(N2CCN(Cc3cc(F)c4c(c3)[nH]c(=O)c3c(C)cnn34)CC2)c(F)n1 [Example 76, 7-((4-(2-fluoro-6-(methylcarbamoyl)pyridin-3-yl)piperazin-1-yl)methyl)-9-fluoro-3-methylpyrazolo[1,5-a]quinoxalin-4(5H)-one] | 64.6 nM | 1.37 nM | 2.1 nM
26 | CNC(=O)c1ccc(N2CCN(Cc3cc(F)c4c(c3)[nH]c(=O)c3c(C)cnn34)CC2)c(Cl)n1 [Example 77, 7-((4-(2-chloro-6-(methylcarbamoyl)pyridin-3-yl)piperazin-1-yl)methyl)-9-fluoro-3-methylpyrazolo[1,5-a]quinoxalin-4(5H)-one] | 241 nM | 2.39 nM | 1.51 nM
27 | CNC(=O)c1ccc(N2CCN(Cc3cc(F)c4c(c3)[nH]c(=O)c3c(C)cnn34)CC2)c(C)n1 [Example 78, 7-((4-(2-methyl-6-(methylcarbamoyl)pyridin-3-yl)piperazin-1-yl)methyl)-9-fluoro-3-methylpyrazolo[1,5-a]quinoxalin-4(5H)-one] | 153 nM | 1 nM | 1.38 nM
